Measured values from publication PMC10424185, “C-2 Thiophenyl Tryptophan Trimers Inhibit Cellular Entry of SARS-CoV-2 through Interaction with the Viral Spike (S) Protein” (Journal of Medicinal Chemistry, 2023).
“Also recorded” adds a separate entry of the source. Where two headings read alike, the source gives them in different places.

Columns and labels:
[1] = test system: VSV-S (pseudotyped VSV carrying the S protein of Wuhan-Hu-1 SARS-CoV-2); assay: microbe, parasite or virus in culture; format: cell-based
[2] = in vitro; settings: human
[3] = test system: VSV-S (pseudotyped VSV carrying the S protein of Wuhan-Hu-1 SARS-CoV-2); assay: microbe, parasite or virus in culture; format: cell-based; settings: read-out: IC50 (concentration at which virus infection is reduced by 50%), VSV-S in A549-ACE2-TMPRSS2 cells
[4] = in vitro; settings: African green monkey
[5] = target: SARS-CoV-2 RBD (Severe acute respiratory syndrome coronavirus 2, UniProt P0DTC2); format: binding
[6] = Vesicular stomatitis virus, Vero C1008, read-out: IC50 (concentration at which virus infection is reduced by 50%), VSV-S in Vero E6 cells
[7] = read-out: IC50 (concentration at which virus infection is reduced by 50%), VSV-S in Vero E6 cells

SMILES	primary HTS screening result (in words) [1]	IC50 [1, 6] [µM]	IC50 [1, 7] [µM]	CC50 [2] [µM]	IC50 ([3]; Vesicular stomatitis virus) [µM]	CC50 [4] [µM]	effect on thermofluor fluorescence profile / thermal stability of RBD (in words) [5]	IC50 [3] [µM]	antiviral activity in the VSV-S assay (in words) [1]
O=C(CCOCC(COCCC(=O)NC(Cc1c(Sc2ccc([N+](=O)[O-])cc2)[nH]c2ccccc12)C(=O)O)(COCCC(=O)NC(Cc1c(Sc2ccc([N+](=O)[O-])cc2)[nH]c2ccccc12)C(=O)O)COCCC(=O)NC(Cc1c(Sc2ccc([N+](=O)[O-])cc2)[nH]c2ccccc12)C(=O)O)NC(Cc1c(Sc2ccc([N+](=O)[O-])cc2)[nH]c2ccccc12)C(=O)O (stereo not drawn) [Compound 1]	significant antiviral activity in the absence of cytotoxicity	21.4 ± 9.45	21.4 ± 9.5	> 100	18.5 ± 3.5	> 100	–	–	–
O=C(CCC(CCC(=O)NC(Cc1c(Sc2ccc([N+](=O)[O-])cc2)[nH]c2ccccc12)C(=O)O)(CCC(=O)NC(Cc1c(Sc2ccc([N+](=O)[O-])cc2)[nH]c2ccccc12)C(=O)O)[N+](=O)[O-])NC(Cc1c(Sc2ccc([N+](=O)[O-])cc2)[nH]c2ccccc12)C(=O)O (stereo not drawn) [Compound 3]	effective	32.9 ± 4.48	32.9 ± 4.5	–	–	> 100	–	–	–
NCC(=O)NC(CCC(=O)NC(Cc1c(Sc2ccccc2[N+](=O)[O-])[nH]c2ccccc12)C(=O)O)(CCC(=O)NC(Cc1c(Sc2ccccc2[N+](=O)[O-])[nH]c2ccccc12)C(=O)O)CCC(=O)NC(Cc1c(Sc2ccccc2[N+](=O)[O-])[nH]c2ccccc12)C(=O)O (stereo not drawn) [Compound 36]	–	> 100	–	–	–	–	–	–	–
NCC(=O)NC(CCC(=O)NC(Cc1c(Sc2cccc([N+](=O)[O-])c2)[nH]c2ccccc12)C(=O)O)(CCC(=O)NC(Cc1c(Sc2cccc([N+](=O)[O-])c2)[nH]c2ccccc12)C(=O)O)CCC(=O)NC(Cc1c(Sc2cccc([N+](=O)[O-])c2)[nH]c2ccccc12)C(=O)O (stereo not drawn) [Compound 37]	–	37.1 ± 15.9	–	> 100	8.6 ± 4.7	> 100	–	–	–
NCC(=O)NC(CCC(=O)NC(Cc1c(Sc2ccc(C(F)(F)F)cc2)[nH]c2ccccc12)C(=O)O)(CCC(=O)NC(Cc1c(Sc2ccc(C(F)(F)F)cc2)[nH]c2ccccc12)C(=O)O)CCC(=O)NC(Cc1c(Sc2ccc(C(F)(F)F)cc2)[nH]c2ccccc12)C(=O)O (stereo not drawn) [Compound 38]	–	27.6 ± 12.6	–	> 100	11.6 ± 4.8	> 100	shift of the curve toward lower temperatures	–	–
N#Cc1ccc(Sc2[nH]c3ccccc3c2CC(NC(=O)CCC(CCC(=O)NC(Cc2c(Sc3ccc(C#N)cc3)[nH]c3ccccc23)C(=O)O)(CCC(=O)NC(Cc2c(Sc3ccc(C#N)cc3)[nH]c3ccccc23)C(=O)O)NC(=O)CN)C(=O)O)cc1 (stereo not drawn) [Compound 39]	–	33.6 ± 7.2	–	> 100	34.9 ± 8.7	> 100	–	–	–
NCC(=O)NC(CCC(=O)NC(Cc1c(Sc2ccc(F)cc2)[nH]c2ccccc12)C(=O)O)(CCC(=O)NC(Cc1c(Sc2ccc(F)cc2)[nH]c2ccccc12)C(=O)O)CCC(=O)NC(Cc1c(Sc2ccc(F)cc2)[nH]c2ccccc12)C(=O)O (stereo not drawn) [Compound 40]	–	33 ± 1.3	–	> 100	46.9 ± 17.5	> 100	–	–	–
CC(=O)c1ccc(Sc2[nH]c3ccccc3c2CC(NC(=O)CCC(CCC(=O)NC(Cc2c(Sc3ccc(C(C)=O)cc3)[nH]c3ccccc23)C(=O)O)(CCC(=O)NC(Cc2c(Sc3ccc(C(C)=O)cc3)[nH]c3ccccc23)C(=O)O)NC(=O)CN)C(=O)O)cc1 (stereo not drawn) [Compound 41]	–	~2	3 ± 1.9	> 100	~2	> 100	shift of the curve toward lower temperatures; also recorded: thermally destabilized the RBD	2.3 ± 1.7	–
NCC(=O)NC(CCC(=O)NC(Cc1c(-c2ccc([N+](=O)[O-])cc2)[nH]c2ccccc12)C(=O)O)(CCC(=O)NC(Cc1c(-c2ccc([N+](=O)[O-])cc2)[nH]c2ccccc12)C(=O)O)CCC(=O)NC(Cc1c(-c2ccc([N+](=O)[O-])cc2)[nH]c2ccccc12)C(=O)O (stereo not drawn) [Compound 46]	–	> 50	–	–	–	–	–	–	antiviral activity is also lost
NCC(=O)NC(CCC(=O)NC(Cc1c(C(=O)c2ccc([N+](=O)[O-])cc2)[nH]c2ccccc12)C(=O)O)(CCC(=O)NC(Cc1c(C(=O)c2ccc([N+](=O)[O-])cc2)[nH]c2ccccc12)C(=O)O)CCC(=O)NC(Cc1c(C(=O)c2ccc([N+](=O)[O-])cc2)[nH]c2ccccc12)C(=O)O (stereo not drawn) [Compound 50]	–	> 50	–	–	–	–	–	–	antiviral activity is also lost
CCCCCC(=O)NCC(=O)NC(CCC(=O)NC(Cc1c(Sc2ccc([N+](=O)[O-])cc2)[nH]c2ccccc12)C(=O)O)(CCC(=O)NC(Cc1c(Sc2ccc([N+](=O)[O-])cc2)[nH]c2ccccc12)C(=O)O)CCC(=O)NC(Cc1c(Sc2ccc([N+](=O)[O-])cc2)[nH]c2ccccc12)C(=O)O (stereo not drawn) [Compound 56]	–	18.9 ± 6.8	–	> 100	8.3 ± 1.1	> 100	–	–	–
CCCCCCCC(=O)NCC(=O)NC(CCC(=O)NC(Cc1c(Sc2ccc([N+](=O)[O-])cc2)[nH]c2ccccc12)C(=O)O)(CCC(=O)NC(Cc1c(Sc2ccc([N+](=O)[O-])cc2)[nH]c2ccccc12)C(=O)O)CCC(=O)NC(Cc1c(Sc2ccc([N+](=O)[O-])cc2)[nH]c2ccccc12)C(=O)O (stereo not drawn) [Compound 57]	–	23.5 ± 3.8	–	> 100	11.1 ± 5	> 100	shift of the curve toward lower temperatures	–	–
CCCCCCCCCC(=O)NCC(=O)NC(CCC(=O)NC(Cc1c(Sc2ccc([N+](=O)[O-])cc2)[nH]c2ccccc12)C(=O)O)(CCC(=O)NC(Cc1c(Sc2ccc([N+](=O)[O-])cc2)[nH]c2ccccc12)C(=O)O)CCC(=O)NC(Cc1c(Sc2ccc([N+](=O)[O-])cc2)[nH]c2ccccc12)C(=O)O (stereo not drawn) [Compound 58]	–	21 ± 8.7	–	> 100	9.8 ± 4.3	> 100	–	–	–
CCCCCCCCCCCC(=O)NCC(=O)NC(CCC(=O)NC(Cc1c(Sc2ccc([N+](=O)[O-])cc2)[nH]c2ccccc12)C(=O)O)(CCC(=O)NC(Cc1c(Sc2ccc([N+](=O)[O-])cc2)[nH]c2ccccc12)C(=O)O)CCC(=O)NC(Cc1c(Sc2ccc([N+](=O)[O-])cc2)[nH]c2ccccc12)C(=O)O (stereo not drawn) [Compound 59]	–	30.3 ± 5.3	–	> 100	44.4 ± 23.4	> 100	–	–	–
O=C(O)CCCCC(=O)NCC(=O)NC(CCC(=O)NC(Cc1c(Sc2ccc([N+](=O)[O-])cc2)[nH]c2ccccc12)C(=O)O)(CCC(=O)NC(Cc1c(Sc2ccc([N+](=O)[O-])cc2)[nH]c2ccccc12)C(=O)O)CCC(=O)NC(Cc1c(Sc2ccc([N+](=O)[O-])cc2)[nH]c2ccccc12)C(=O)O (stereo not drawn) [Compound 61]	–	~2	2.1 ± 1.5	> 100	~2	> 100	shift of the curve toward lower temperatures	2.3 ± 0.8	–
